According to patent publication US10322995B2, “Substituted cyano cycloalkyl penta-2,4-dienes, cyano cycloalkyl pent-2-en-4-ynes, cyano heterocyclyl penta-2,4-dienes and cyano heterocyclyl pent-2-en-4-ynes as active substances against abiotic plant stress” (BAYER CROPSCIENCE AKTIENGESELLSCHAFT, priority 2014, dated 2019):

Columns and labels:
[1] = target: T1, phosphatase ABI1 via the co-regulator RCAR11/PYR1 (Arabidopsis thaliana, UniProt O49686+P49597); test: In vitro assay: inhibition of the phosphatase ABI1 via the co-regulator RCAR11/PYR1, MUP dephosphorylation, fluorescence; assay type: biochemical; conditions: concentration of 5 mM of the substance in a solution of DMSO and water; MUP dephosphorylation, fluorescence 460 nm
T1 sequence (O49686 1-191): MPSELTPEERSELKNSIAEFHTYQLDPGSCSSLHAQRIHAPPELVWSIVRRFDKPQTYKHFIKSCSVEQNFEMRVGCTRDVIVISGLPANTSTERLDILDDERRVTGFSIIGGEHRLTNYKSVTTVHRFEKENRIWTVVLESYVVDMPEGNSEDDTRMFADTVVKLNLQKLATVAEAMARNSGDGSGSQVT
T1 sequence (P49597 1-434): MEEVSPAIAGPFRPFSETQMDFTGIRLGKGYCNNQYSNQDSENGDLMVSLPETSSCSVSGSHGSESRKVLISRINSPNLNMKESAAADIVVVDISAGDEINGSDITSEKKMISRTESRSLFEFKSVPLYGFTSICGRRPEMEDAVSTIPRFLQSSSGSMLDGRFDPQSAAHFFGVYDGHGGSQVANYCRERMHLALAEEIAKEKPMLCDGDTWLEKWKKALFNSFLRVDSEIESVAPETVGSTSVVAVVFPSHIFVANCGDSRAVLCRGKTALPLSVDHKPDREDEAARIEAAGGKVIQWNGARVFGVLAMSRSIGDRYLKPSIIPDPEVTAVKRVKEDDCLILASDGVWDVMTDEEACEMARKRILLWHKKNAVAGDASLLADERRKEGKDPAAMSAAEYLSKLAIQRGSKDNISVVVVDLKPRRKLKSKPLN
Excerpt: Effects of the phytohormone abscisic acid (ABA) on the behaviour of plants under abiotic stress and the mechanism of action of ABA are described in the literature (cf. Abrams et al, WO97/23441, Cutler, Park et al. Science, 2009, 324, 1068; Grill et al. Science, 2009, 324, 1064; Tanokura et al. Biophysics, 2011, 7, 123; Schroeder et al. Plant J. 2010, 61, 290). Therefore, it is possible with the aid of a suitable in vitro test system to derive a correlation between the action of ABA and the stress response of a plant under abiotic stress. Under drought stress, plants form the phytohormone abscisic acid (ABA). This binds, along with a co-regulator (Regulatory Component of ABA-Receptor=RCAR according to Grill et al. Science, 2009, 324, 1064 or PYR/PYL according to Cutler et al. Science, 2009, 324, 1068), to a phosphatase (e.g. ABI1, a type 2C protein phosphatase, also abbreviated to PP2C) and inhibits its activity. As a result, a “downstream” kinase (e.g. SnRK2) is no longer dephosphorylated. This kinase, which is thus active, via phosphorylation of transcription factors (e.g. AREB/ABF, vgl. Yoshida et al., Plant J. 2010, 61, 672), switches on a genetic protection programme to increase drought stress tolerance.
The assay described hereinafter utilizes the inhibition of the phosphatase ABI1 via the co-regulator RCAR11/PYR1 aus Arabidopsis thaliana.
For the determination of activity, the dephosphorylation of 4-methylumbelliferyl phosphate (MUP) was measured at 460 nm. The in vitro assay was conducted in Greiner 384-well PS microplates F-well, using two controls: a) dimethyl sulphoxide (DMSO) 0.5% (f.c.) and b) 5 μM (f.c.) abscisic acid (ABA). […] The substance solution thus obtained, if necessary, was stirred with esterase from porcine liver (EC 3.1.1.1) at room temperature for 3 h and centrifuged at 4000 rpm for 30 min. A total volume of 45 μl was introduced into each cavity of the microplate, having the following composition: • 1) 5 μl of substance solution, i.e. a) DMSO 5% or b) abscisic acid solution or c) the corresponding example compound of the general formula (I) dissolved in 5% DMSO. • 2) 20 μl of enzyme buffer mix, composed of a) 40% by vol. of enzyme buffer (10 ml contain equal proportions by volume of 500 mM Tris-HCl pH8, 500 mM NaCl, 3.33 mM MnCl2, 40 mM dithiothreitol (DTT)), b) 4% by vol. of ABI1 dilution (protein stock solution was diluted so as to give, after addition, a final concentration in the assay of 0.15 μg ABI1/well), c) 4% by vol. of RCAR11 dilution (enzyme stock was diluted so as to give, on addition of the dilution to the enzyme buffer mix, a final concentration in the assay of 0.30 μg enzyme/well), d) 5% by vol. of Tween20 (1%), e) 47% by vol. H2O bi-dist. • 3) 20 μl of substrate mix, composed of a) 10% by vol. of 500 mM Tris-HCl pH8, b) 10% by vol. of 500 mM NaCl, c) 10% by vol. of 3.33 mM MnCl2, d) 5% by vol. of 25 mM MUP, 5% by vol. of Tween20 (1%), 60% by vol. of H2O bi-dist.
Enzyme buffer mix and substrate mix were made up 5 minutes prior to the addition and warmed to a temperature of 35° C. On completion of pipetting of all the solutions and on completion of mixing, the plate was incubated at 35° C. for 20 minutes. Finally, a relative fluorescence measurement was made at 35° C. with a BMG Labtech “POLARstar Optima” microplate reader using a 340/10 nm excitation filter and a 460 nm emission filter. The efficacy of the compounds of the general formula (I) is reported in the table which follows using abscisic acid (No. 64) as comparative substance according to the following classification: ++++ (inhibition≥90%), +++ (90%>inhibition≥70%), ++ (70%>inhibition≥50%), +(50%>inhibition≥30%).
Effects of selected compounds of the general formula (I) in the above-described in vitro assay at a concentration of 5 mM of the substance of the general formula (I) in question in a solution of DMSO and water: […]

[2] = system: Brassica napus (BRSNS); test: In vivo analyses Part C: drought stress, appearance vs stressed control plants in categories (BRSNS); design: key: 0: no positive effect; 10: slight positive effect; 20: clear positive effect; 30: strong positive effect; conditions: appearance vs stressed control plants after recovery phase, efficacy range of 3-4 pots
Experimental: Seeds of monocotyledonous and dicotyledonous crop plants were sown in sandy loam in plastic or wood-fibre pots, covered with soil or sand and cultivated in a greenhouse under good growth conditions. The test plants were treated at the early leaf stage (BBCH10-BBCH13). To assure uniform water supply before commencement of stress, the potted plants were supplied with water by dam irrigation prior to substance application. The inventive compounds were first formulated as wettable powders (WP) or dissolved in a solvent mixture. The further dilution was effected with water supplemented with 0.2% wetting agent (e.g. agrotin). The finished spray liquor was sprayed onto the green parts of the plant at an equivalent water application rate of 600 I/ha. Substance application was followed immediately by stress treatment of the plants. For this purpose, the wood-fibre pots were transferred in plastic inserts in order to prevent them from subsequently drying out too quickly. Drought stress was induced by gradual drying out under the following conditions: “Day”: 14 hours with illumination at 26-30° C. “Night”: 10 hours without illumination at 18-20° C. The duration of the respective stress phases was guided mainly by the condition of the stressed control plants. It was ended (by re-irrigating and transfer to a greenhouse with good growth conditions) as soon as irreversible damage was observed on the stressed control plants. The end of the stress phase was followed by an about 4-7-day recovery phase, during which the plants were once again kept under good growth conditions in a greenhouse. The duration of the recovery phase was guided mainly by when the trial plants had attained a state which enabled visual scoring of potential effects, and was therefore variable. Once this juncture had been reached, the appearance of the plants treated with test substances was recorded in comparison to the stressed control plants by the following categories: [table] For each substance and dosage, 3-4 pots were treated and evaluated. BRSNS=Brassica napus

ABI1 inhibition [1] | Structure (SMILES) | Effect (BRSNS) ([2]; dosage 250 g/ha) | Effect (BRSNS) ([2]; dosage 25 g/ha)
++++ (inhibition≥90%) | CCC(C=CC(O)(C(CC)CC)C1(C#N)CC1)=CC(=O)OC (racemic) [I.2-583] | 10-30 | –
+++ (90%>inhibition≥70%) | CCCOC(=O)C=C(C#CC(O)(C(CC)CC)C1(C#N)CC1)C(F)(F)F (racemic) [I.1-887] | 10-20 | –
++++ (inhibition≥90%) | CCCOC(=O)C=C(C=CC(O)(C(C)C)C1(C#N)CC1)CC (racemic) [I.2-507] | 30 | –
++++ (inhibition≥90%) | CC/C(C#CC(O)(C1CC1)C1(C#N)CC1)=C/C(=O)OC (stereo not drawn) [I.1-618] | – | 30

Further lines, the molecule ahead of its results:

Structure (SMILES) | ABI1 inhibition [1] | Effect (BRSNS) ([2]; dosage 250 g/ha) | Effect (BRSNS) ([2]; dosage 25 g/ha)
COC(=O)C=C(C)C=CC(O)(C1CC1)C1(C#N)CC1 (racemic) [I.2-543] | – | – | 30
COC(=O)C=C(C#CC(O)(c1ccc(C)cc1)C1(C#N)CC1)C(F)(F)F (racemic) [I.1-812] | +++ (90%>inhibition≥70%) | 10-20 | –
CC/C(C#CC(O)(C1CCCCC1)C1(C#N)CC1)=C/C(=O)OC (stereo not drawn) [I.1-678] | ++++ (inhibition≥90%) | 10-30 | –
CCC(C=CC(O)(C(C)C)C1(C#N)CC1)=CC(=O)OC (racemic) [I.2-102] | ++++ (inhibition≥90%) | 10-20 | –
